We go through seven molecules from patent publication US12595253B2, “Benzamides of pyrazolylamino-pyrimidinyl derivatives, and compositions and methods thereof” (LYNK PHARMACEUTICALS CO. LTD., priority 2019, dated 2026).

The target of one data set is T1, CYP2D6 (Homo sapiens, UniProt P10635).
T1 construct: 0.2 mg/mL human liver microsomes was pre-incubated in 180 μL reaction mixture; from tissue; host or cells: pooled human liver microsomes
Description: CYPs inhibition in pooled human liver microsomes, probe substrate Dextromethorphan. Type of data set: in vitro ADME. The procedure:
(§1) The inhibitory potential of test articles in pooled human liver microsomes was evaluated by the method using a cocktail of CYP substrates. […] For the negative control well, the test articles was replaced with 20 μL reaction buffer. After 10 min of pre-incubation at 37° C., 20 μL 10 mM NADPH cofactor was added to the pre-reaction mixtures. After another 10 min incubation, the reaction was stopped by adding 400 μL of ice cold acetonitrile solution containing tolbutamide and labetalol served as internal standards. The incubation mixtures were centrifuged at 4000×g for 20 min, and then the supernatants were analyzed by LC-MS/MS after dilution. SigmaPlot was applied to plot % control activity versus the test compound concentrations, and for non-linear regression analysis of the data. IC50 values of test articles were determined using 3-parameter logistic equation.
For orientation: Microsomes from liver hold many membrane-bound enzymes, among them those of drug oxidation.

A further data set concerns the target T2, CYP1A2 (Homo sapiens, UniProt P05177).
T2 construct: 0.2 mg/mL human liver microsomes was pre-incubated in 180 μL reaction mixture; from tissue; host or cells: pooled human liver microsomes
T2 sequence (P05177 1-516): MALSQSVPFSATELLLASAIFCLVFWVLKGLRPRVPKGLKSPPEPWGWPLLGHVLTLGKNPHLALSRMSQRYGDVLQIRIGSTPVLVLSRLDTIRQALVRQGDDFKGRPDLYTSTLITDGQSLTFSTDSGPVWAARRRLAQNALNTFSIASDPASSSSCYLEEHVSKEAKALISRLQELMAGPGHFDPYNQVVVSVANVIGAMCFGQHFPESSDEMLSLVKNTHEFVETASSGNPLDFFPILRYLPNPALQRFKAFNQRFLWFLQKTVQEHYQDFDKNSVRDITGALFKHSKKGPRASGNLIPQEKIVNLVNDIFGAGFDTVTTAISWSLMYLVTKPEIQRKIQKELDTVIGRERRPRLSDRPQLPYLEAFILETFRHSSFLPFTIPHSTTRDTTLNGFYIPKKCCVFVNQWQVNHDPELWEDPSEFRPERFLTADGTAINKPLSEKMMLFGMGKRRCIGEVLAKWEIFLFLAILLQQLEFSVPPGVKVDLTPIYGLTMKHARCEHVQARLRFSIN
Description: CYPs inhibition in pooled human liver microsomes, probe substrate Phenacetin. In kind it is in vitro ADME. The method, then: as §1

Another data set concerns the target T3, TYK2 (Homo sapiens, UniProt P29597).
T3 construct: purchased Carna Biosciences
Briefly: TYK2 microfluidic kinase assay (Caliper EZ Reader II, FAM labeled peptide substrate). In kind it is biochemical. Put shortly:
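3-fold series, top 5 μM, 1% DMSO; 10 min preincubation with enzyme, RT. Buffer 50 mM HEPES/10 mM MgCl2/2 mM DTT/0.01% Brij35. Run times JAK1 120 min, JAK2 20, JAK2V617F 30, TYK2 10. Stopped with 50 mM EDTA; IC50 from % inhibition vs no-enzyme and DMSO controls.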

Another data set addresses T4, JAK2 (Homo sapiens, UniProt O60674).
T4 construct: purchased Carna Biosciences
Briefly: JAK2 microfluidic kinase assay (Caliper EZ Reader II, FAM labeled peptide substrate). In kind it is biochemical. Put shortly:
(§2)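 Microfluidic mobility-shift kinase assay in 50 mM HEPES, 0.01% Brij35, 10 mM MgCl2, 2 mM DTT. IC50 values come from percent-inhibition curves normalised to uninhibited and enzyme-free controls.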

Data set [1] in a line: Liver microsomes study, Phase I stability (RLM). Type of data set: in vitro ADME, rat. The following applies: pH 7.4; rat liver microsomes 0.5 mg/mL, 1 μM test article; read-out: RLM Clint. The gist of the method:
(§3)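 Rat or human liver microsomes were incubated with test article, and reactions started with an NADPH regenerating system. Samples at 0, 10, 30 and 90 minutes were quenched with cold acetonitrile and analyzed by LC/MS/MS. T½ and CLint came from the ln(% remaining) versus time slope, scaled by protein concentration.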

In a further data set the target is T5, CYP2C19 (Homo sapiens, UniProt P33261).
T5 construct: 0.2 mg/mL human liver microsomes was pre-incubated in 180 μL reaction mixture; from tissue; host or cells: pooled human liver microsomes
Briefly: CYPs inhibition in pooled human liver microsomes, probe substrate S-mephenytoin. Type of data set: in vitro ADME. The method, then: as §1

For another data set, the target named is T6, CYP3A4 (Homo sapiens, UniProt P08684).
T6 construct: 0.2 mg/mL human liver microsomes was pre-incubated in 180 μL reaction mixture; from tissue; host or cells: pooled human liver microsomes
Briefly: CYPs inhibition in pooled human liver microsomes, probe substrate Midazolam. In kind it is in vitro ADME. The procedure: as §1

In the next data set the target is T7, CYP2C9 (Homo sapiens, UniProt P11712).
T7 construct: 0.2 mg/mL human liver microsomes was pre-incubated in 180 μL reaction mixture; from tissue; host or cells: pooled human liver microsomes
Briefly: CYPs inhibition in pooled human liver microsomes, probe substrate Diclofenac. Type of data set: in vitro ADME. The procedure:
as §1

Another data set deals with T8, JAK1 (Homo sapiens, UniProt P23458).
T8 construct: purchased Carna Biosciences
Description: JAK1 microfluidic kinase assay (Caliper EZ Reader II, FAM labeled peptide substrate). Type of data set: biochemical. Put shortly:
as §2

The next data set addresses T9, JAK2V617F (Homo sapiens, UniProt O60674, V617F).
T9 construct: purchased Carna Biosciences
Description: JAK2V617F microfluidic kinase assay (Caliper EZ Reader II, FAM labeled peptide substrate). In kind it is biochemical. The settings on record: JAK2V617F 2.5 nM, 1 mM ATP. The gist of the method: as §2

Data set [2] in a line: Liver microsomes study, Phase I stability (HLM). In kind it is in vitro ADME, human. The settings on record: pH 7.4; human liver microsomes 0.5 mg/mL, 1 μM test article; read-out: HLM Clint. Put shortly: as §3
Where [3] appears, read: IC50 TYK2 ([…]) (1 mM ATP), TYK2 […], 1 mM ATP.
Where [4] appears, read: IC50 JAK2 ([…]) (1 mM ATP), 1 mM ATP.
Where [5] appears, read: IC50 JAK1 (5 nM) (1 m MATP), JAK1 5 nM, 1 mM ATP.
Setting [6] is: IC50 JAK2 ([…]) (Km ATP), Km ATP.
The mark [7] stands for this setting: IC50 JAK1 (10 nM) (Km ATP), JAK1 10 nM, Km ATP.

Molecules are shown by their SMILES. Bounds are passed on as bounds.

T7 sequence (P11712 whole entry): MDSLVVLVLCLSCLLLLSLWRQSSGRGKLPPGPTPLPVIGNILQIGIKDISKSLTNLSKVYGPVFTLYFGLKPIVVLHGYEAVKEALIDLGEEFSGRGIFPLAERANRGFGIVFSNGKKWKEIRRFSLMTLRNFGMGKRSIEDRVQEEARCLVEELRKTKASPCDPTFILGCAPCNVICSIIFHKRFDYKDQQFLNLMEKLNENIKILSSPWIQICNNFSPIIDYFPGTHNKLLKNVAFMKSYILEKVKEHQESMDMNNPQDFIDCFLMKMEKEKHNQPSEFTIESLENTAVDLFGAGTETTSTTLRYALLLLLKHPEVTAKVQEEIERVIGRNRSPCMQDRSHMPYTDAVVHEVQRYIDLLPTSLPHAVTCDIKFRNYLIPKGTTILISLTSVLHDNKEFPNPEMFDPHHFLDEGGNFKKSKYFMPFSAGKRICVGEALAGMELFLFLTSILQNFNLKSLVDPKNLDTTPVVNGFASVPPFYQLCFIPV
T5 sequence (P33261 whole entry): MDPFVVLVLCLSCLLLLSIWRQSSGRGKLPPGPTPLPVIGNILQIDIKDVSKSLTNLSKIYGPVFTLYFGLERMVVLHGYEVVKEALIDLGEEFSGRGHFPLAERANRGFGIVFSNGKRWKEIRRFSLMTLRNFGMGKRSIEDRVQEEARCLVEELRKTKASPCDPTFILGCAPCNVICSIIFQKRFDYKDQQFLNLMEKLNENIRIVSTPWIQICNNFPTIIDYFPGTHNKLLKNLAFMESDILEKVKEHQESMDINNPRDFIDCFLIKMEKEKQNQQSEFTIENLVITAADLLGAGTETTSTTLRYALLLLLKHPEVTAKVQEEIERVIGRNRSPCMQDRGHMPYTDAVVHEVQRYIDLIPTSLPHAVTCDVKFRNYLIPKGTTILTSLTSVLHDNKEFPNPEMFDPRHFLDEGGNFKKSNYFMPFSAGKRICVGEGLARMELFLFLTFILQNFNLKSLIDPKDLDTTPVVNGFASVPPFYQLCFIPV
T1 sequence (P10635 whole entry): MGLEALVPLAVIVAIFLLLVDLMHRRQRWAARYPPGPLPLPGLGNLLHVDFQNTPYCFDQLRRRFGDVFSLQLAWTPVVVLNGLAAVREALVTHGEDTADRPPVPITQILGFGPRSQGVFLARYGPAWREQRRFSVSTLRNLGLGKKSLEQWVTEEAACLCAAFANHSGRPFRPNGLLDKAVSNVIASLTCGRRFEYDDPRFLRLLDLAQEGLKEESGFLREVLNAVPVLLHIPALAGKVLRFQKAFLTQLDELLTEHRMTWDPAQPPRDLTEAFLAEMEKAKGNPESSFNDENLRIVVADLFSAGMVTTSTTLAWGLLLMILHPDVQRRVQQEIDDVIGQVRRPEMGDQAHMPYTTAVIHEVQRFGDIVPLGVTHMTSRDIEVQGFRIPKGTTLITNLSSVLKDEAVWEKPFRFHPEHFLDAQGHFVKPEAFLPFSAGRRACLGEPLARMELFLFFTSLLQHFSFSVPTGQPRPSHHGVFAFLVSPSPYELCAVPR
T9 sequence (O60674 whole entry V617F): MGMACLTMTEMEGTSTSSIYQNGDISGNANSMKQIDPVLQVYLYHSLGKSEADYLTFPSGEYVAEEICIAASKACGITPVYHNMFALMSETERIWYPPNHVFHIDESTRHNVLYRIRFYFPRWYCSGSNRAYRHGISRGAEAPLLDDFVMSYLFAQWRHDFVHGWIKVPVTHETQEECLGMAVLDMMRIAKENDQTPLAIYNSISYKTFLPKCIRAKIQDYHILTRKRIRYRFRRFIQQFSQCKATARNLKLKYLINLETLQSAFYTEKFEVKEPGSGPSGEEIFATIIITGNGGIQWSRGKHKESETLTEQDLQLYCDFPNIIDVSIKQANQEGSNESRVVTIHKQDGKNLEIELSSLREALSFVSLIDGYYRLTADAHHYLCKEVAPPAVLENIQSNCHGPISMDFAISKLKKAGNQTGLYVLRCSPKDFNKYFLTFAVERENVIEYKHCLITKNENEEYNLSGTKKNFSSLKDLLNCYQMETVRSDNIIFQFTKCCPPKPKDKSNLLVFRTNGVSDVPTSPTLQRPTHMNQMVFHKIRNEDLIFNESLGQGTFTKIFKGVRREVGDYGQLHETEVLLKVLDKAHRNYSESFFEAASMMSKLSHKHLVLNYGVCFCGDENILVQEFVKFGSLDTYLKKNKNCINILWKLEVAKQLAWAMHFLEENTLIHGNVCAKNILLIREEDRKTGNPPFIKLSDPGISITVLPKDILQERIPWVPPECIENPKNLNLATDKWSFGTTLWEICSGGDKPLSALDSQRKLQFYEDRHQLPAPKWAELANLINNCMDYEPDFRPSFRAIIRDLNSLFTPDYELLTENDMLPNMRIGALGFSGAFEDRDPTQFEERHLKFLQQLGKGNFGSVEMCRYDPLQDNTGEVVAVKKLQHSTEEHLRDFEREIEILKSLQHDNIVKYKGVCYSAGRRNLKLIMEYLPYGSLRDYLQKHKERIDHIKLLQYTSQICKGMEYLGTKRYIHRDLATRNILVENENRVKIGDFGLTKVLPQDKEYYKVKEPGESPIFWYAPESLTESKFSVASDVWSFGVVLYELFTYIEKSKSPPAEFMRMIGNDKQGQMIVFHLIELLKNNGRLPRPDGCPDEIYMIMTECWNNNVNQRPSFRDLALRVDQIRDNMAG
T3 sequence (P29597 whole entry): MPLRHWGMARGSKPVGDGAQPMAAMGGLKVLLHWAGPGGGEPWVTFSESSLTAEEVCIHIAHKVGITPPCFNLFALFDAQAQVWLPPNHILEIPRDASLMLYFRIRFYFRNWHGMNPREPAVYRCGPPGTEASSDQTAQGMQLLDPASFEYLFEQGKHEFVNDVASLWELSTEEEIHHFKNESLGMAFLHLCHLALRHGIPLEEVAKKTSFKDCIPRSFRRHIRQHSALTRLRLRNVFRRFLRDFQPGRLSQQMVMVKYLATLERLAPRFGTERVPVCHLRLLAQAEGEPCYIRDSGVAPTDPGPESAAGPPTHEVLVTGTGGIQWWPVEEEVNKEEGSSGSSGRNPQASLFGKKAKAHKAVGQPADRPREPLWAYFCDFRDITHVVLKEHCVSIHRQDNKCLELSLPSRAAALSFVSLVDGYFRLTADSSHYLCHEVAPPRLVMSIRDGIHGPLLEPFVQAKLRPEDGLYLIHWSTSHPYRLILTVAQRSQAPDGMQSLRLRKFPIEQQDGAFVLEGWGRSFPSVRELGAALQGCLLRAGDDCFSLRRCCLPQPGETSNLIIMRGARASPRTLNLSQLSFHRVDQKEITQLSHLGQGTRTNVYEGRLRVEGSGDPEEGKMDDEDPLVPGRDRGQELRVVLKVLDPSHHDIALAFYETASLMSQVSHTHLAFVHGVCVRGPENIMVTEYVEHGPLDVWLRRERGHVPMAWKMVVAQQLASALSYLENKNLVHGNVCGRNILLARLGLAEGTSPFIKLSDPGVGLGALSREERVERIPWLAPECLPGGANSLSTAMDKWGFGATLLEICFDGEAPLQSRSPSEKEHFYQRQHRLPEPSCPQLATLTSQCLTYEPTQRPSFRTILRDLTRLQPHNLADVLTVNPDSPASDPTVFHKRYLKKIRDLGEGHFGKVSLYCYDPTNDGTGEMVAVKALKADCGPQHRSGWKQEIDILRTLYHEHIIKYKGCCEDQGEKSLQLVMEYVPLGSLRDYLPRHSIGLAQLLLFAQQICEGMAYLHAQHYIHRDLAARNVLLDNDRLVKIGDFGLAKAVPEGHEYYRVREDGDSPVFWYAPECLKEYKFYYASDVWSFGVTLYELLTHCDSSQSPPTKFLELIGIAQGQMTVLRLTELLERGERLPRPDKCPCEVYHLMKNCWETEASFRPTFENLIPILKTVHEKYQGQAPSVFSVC
T6 sequence (P08684 whole entry): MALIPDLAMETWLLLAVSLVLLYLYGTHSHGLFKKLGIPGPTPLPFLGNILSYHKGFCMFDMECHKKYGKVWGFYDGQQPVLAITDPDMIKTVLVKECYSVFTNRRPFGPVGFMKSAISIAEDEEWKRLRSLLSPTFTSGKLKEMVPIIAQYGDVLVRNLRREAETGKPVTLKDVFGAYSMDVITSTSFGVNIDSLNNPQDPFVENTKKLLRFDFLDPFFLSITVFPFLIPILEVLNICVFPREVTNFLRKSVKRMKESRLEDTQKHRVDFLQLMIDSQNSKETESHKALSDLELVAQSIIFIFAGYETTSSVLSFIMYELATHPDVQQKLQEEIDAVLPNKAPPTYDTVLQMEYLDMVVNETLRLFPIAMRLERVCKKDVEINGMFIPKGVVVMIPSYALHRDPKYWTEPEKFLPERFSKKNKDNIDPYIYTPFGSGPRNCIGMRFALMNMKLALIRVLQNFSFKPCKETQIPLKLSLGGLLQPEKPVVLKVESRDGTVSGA
T4 sequence (O60674 whole entry): as the sequence (O60674 whole entry V617F) above, with F617V counted along it

A word on the IC50: it is the concentration needed to halve the response being measured. Read a low IC50 as greater potency. Regarding `Cc1cnc(Nc2cnn(C3CCN(C)CC3)c2)nc1-c1ccc(C(=O)N[C@@H](C)C#N)cc1` [Example 48, (S)—N-(1-cyanoethyl)-4-(5-methyl-2-((1-(1-methylpiperidin-4-yl)-1H-pyrazol-4-yl)amino)pyrimidin-4-yl)benzamide], the IC50 on CYP2D6 was more than 50000 nM; at CYP1A2, more than 50000 nM; at TYK2 (setting [3]), 10.6 nM; on JAK2 (setting [4]), 1.02 nM; against CYP2C19, more than 50000 nM; against CYP3A4 it was more than 50000 nM. Further, the IC50 was more than 50000 nM against CYP2C9, 3.83 nM at JAK1 (setting [5]) and 31.7 nM against JAK2V617F. Further, the values for the microsomal CLint at 1 μM in [1] and in data set [2] were 34.5 µL/min/mg and 4.64 µL/min/mg, respectively.

As to `CC[C@@H](C#N)NC(=O)c1ccc(-c2nc(Nc3cnn(CCO)c3)ncc2Cl)cc1` [Example 167, (S)-4-(5-Chloro-2-((1-(2-hydroxyethyl)-1H-pyrazol-4-yl)amino)pyrimidin-4-yl)-N-(1-cyanopropyl)benzamide], the IC50 was 37800 nM against CYP2D6; more than 50000 nM at CYP1A2; 2.64 nM against TYK2 (setting [3]); 4.4 nM on JAK2 (setting [4]); more than 50000 nM against CYP2C19; more than 50000 nM against CYP3A4. Besides, the IC50 on CYP2C9 amounted to 38100 nM; on JAK1 (setting [5]) it was 1.2 nM. In addition, the results for the microsomal CLint at 1 μM in data set [1] and in data set [2] were 14.4 µL/min/mg and 7.06 µL/min/mg, respectively.

Consider `Cc1cnc(Nc2cnn(C3CCN(CC(F)F)CC3)c2)nc1-c1ccc(C(=O)NCC#N)cc1` [Example 19, N-(Cyanomethyl)-4-(2-((1-(1-(2,2-difluoroethyl)piperidin-4-yl)-1H-pyrazol-4-yl)amino)-5-methylpyrimidin-4-yl)benzamide], for which the IC50 is more than 50000 nM on CYP2D6; more than 50000 nM against CYP1A2; 0.65 nM against JAK2 (setting [6]); more than 50000 nM against CYP2C19; more than 50000 nM at CYP3A4; more than 50000 nM against CYP2C9. The molecule also registered an IC50 against JAK1 (setting [7]) of 1.92 nM. Further, the microsomal CLint at 1 μM in data set [1] worked out at 49.2 µL/min/mg; in data set [2] it was 33.7 µL/min/mg.

Consider `CC[C@@H](C#N)NC(=O)c1ccc(-c2nc(Nc3cnn(C4CCN(C)CC4)c3)ncc2Cl)cc1` [Example 88, (S)-4-(5-chloro-2-((1-(1-methylpiperidin-4-yl)-1H-pyrazol-4-yl)amino)pyrimidin-4-yl)-N-(1-cyanopropyl)benzamide], for which the IC50 against CYP2D6 was 41900 nM; against CYP1A2 it was more than 50000 nM; at TYK2 (setting [3]), 6.68 nM; against JAK2 (setting [4]), 0.61 nM; on CYP2C19, 24000 nM; against CYP3A4 it was 32100 nM. Further, the IC50 stood at 45300 nM against CYP2C9, 0.82 nM on JAK1 (setting [5]) and 2.42 nM against JAK2V617F. For the same molecule, the microsomal CLint at 1 μM in data set [1] is 221 µL/min/mg; in data set [2] it was 22.8 µL/min/mg.

As for `Cc1cnc(Nc2cnn(C3CCN(CC#N)CC3)c2)nc1-c1ccc(C(=O)NCC#N)cc1` [Example 1, N-(Cyanomethyl)-4-(2-((1-(1-(cyanomethyl)piperidin-4-yl)-1H-pyrazol-4-yl)amino)-5-methylpyrimidin-4-yl)benzamide], the IC50 against CYP2D6 was more than 50000 nM; at CYP1A2, more than 50000 nM; at TYK2 (IC50 TYK2 (10 nM) (Km ATP), TYK2 10 nM, Km ATP) it was 0.84 nM; on JAK2 (setting [4]) it was 1.34 nM; against JAK2 (setting [6]), 0.42 nM; at CYP2C19, more than 50000 nM. Moreover, the IC50 is more than 50000 nM on CYP3A4, more than 50000 nM at CYP2C9, 1.79 nM at JAK1 (setting [7]) and 37.8 nM on JAK2V617F. The microsomal CLint at 1 μM came to 15 µL/min/mg in [1] and 14.9 µL/min/mg in data set [2].

Take `CC(=O)N1CCC(n2cc(Nc3ncc(C)c(-c4ccc(C(=O)NCC#N)cc4)n3)cn2)CC1` [Example 20, 4-(2-((1-(1-Acetylpiperidin-4-yl)-1H-pyrazol-4-yl)amino)-5-methylpyrimidin-4-yl)-N-(cyanomethyl)benzamide]: the IC50 at CYP2D6 is more than 50000 nM; on CYP1A2, more than 50000 nM; on JAK2 (setting [4]), 0.3 nM; at JAK2 (setting [6]) it was 0.25 nM; against CYP2C19 it was more than 50000 nM; against CYP3A4, more than 50000 nM. Moreover, the IC50 is more than 50000 nM against CYP2C9 and 13.7 nM against JAK2V617F. Also, the microsomal CLint at 1 μM in [1] and in [2] was less than 9.6 µL/min/mg each time.

Take `CC[C@@H](C#N)NC(=O)c1ccc(-c2nc(Nc3cnn(CCO)c3)ncc2C)cc1` [Example 172, (S)—N-(1-cyanopropyl)-4-(2-((1-(2-hydroxyethyl)-1H-pyrazol-4-yl)amino)-5-methylpyrimidin-4-yl)benzamide]: the IC50 was more than 50000 nM on CYP2D6; more than 50000 nM at CYP1A2; 1.74 nM against TYK2 (setting [3]); 24.6 nM on JAK2 (setting [4]); more than 50000 nM at CYP2C19; more than 50000 nM at CYP3A4. Besides, the IC50 was more than 50000 nM against CYP2C9 and 1.93 nM at JAK1 (setting [5]). For the same molecule, the microsomal CLint at 1 μM in data set [1] stood at 14.8 µL/min/mg; in [2], 5.05 µL/min/mg.
